Results reported in patent publication US20260049084A1, “ENPP1 MODULATORS AND PRODUCTS AND USES THEREOF” (Gossamer Bio Services, Inc., priority 2022, published 2026).

Columns and labels:
[1] = target: Recombinant human ENPP1 protein (Homo sapiens (Human), UniProt P22413); assay: ENPP1 cGAMP Biochemical Assay; details: 0.5 nM ENPP1, 1000 nM 2′3′-cGAMP substrate, TR-FRET
Protocol: ENPP1 cGAMP Biochemical Assay
Compounds were added to 384 well Proxiplate (PerkinElmer, Waltham MA) at 100 nl/well from DMSO stocks using Echo (Labcyte, San Jose CA). Recombinant human ENPP1 protein (R&D Systems, Minneapolis MN) was prepared in assay buffer (50 mM Tris pH7.5, 1 mM TCEP pH7.0, 2 mM MgCl2 and 0.005% Tween20) and added at 10 μl/well. The plate was sealed, centrifuged at 1000 rpm for 1 minute and incubated at room temperature for 30 minutes before 5 μl substrate 2′3′-cGAMP (R&D Systems, Minneapolis MN) in assay buffer was added to each well to a final concentration of 0.5 nM ENPP1 and 1000 nM 2′3′-cGAMP. The plate was sealed and centrifuged at 1000 rpm for 1 minute again. After incubation at 25° C. for 60 minutes, Terbium labelled AMP/GMP antibody and AMP/GMP HiLyte647 Tracer (BellBrook Labs, Fitchburg WI) in detection buffer (50 mM Tris pH7.5, 20 mM EDTA and 0.1% Prionex) were added to the reaction mixture to a final concentration of 2 nM (5 μl/well). The assay plate was incubated at room temperature for 120 minutes. TR-FRET signal was detected using Envision (PerkinElmer, Waltham MA).

[2] = target: Recombinant human ENPP3 protein (Homo sapiens (Human), UniProt O14638); assay: ENPP3 cGAMP Biochemical Assay; details: 70.5 nM ENPP3, 120 μM 2′3′-cGAMP substrate, TR-FRET
Sequence of Recombinant human ENPP3 protein (O14638 whole entry): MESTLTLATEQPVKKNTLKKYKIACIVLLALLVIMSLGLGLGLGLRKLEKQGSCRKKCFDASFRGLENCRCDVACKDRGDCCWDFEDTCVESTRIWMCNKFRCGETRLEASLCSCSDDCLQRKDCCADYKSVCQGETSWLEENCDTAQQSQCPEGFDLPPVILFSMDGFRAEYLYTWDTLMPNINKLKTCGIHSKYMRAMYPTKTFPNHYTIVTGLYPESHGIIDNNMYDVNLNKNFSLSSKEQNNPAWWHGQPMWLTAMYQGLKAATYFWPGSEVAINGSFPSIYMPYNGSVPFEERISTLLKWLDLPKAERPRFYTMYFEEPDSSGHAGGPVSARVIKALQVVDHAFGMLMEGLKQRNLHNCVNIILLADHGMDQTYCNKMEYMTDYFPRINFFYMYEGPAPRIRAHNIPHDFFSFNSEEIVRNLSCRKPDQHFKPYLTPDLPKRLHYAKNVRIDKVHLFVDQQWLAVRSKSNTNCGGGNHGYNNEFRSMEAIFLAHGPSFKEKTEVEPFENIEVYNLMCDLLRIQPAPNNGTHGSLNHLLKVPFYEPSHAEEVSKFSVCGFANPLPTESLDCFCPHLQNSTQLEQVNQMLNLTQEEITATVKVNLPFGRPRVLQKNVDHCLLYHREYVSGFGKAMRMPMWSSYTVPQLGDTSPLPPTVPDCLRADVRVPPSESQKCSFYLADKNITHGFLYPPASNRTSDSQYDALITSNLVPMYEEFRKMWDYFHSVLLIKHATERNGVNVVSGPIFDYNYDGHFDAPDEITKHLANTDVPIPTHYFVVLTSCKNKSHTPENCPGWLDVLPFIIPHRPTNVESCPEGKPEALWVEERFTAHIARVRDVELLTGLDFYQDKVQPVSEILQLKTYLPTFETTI
Protocol: ENPP3 cGAMP Biochemical Assay
Compounds were added to 384 well Proxiplate (PerkinElmer, Waltham MA) at 100 nl/well from DMSO stocks using Echo (Labcyte, San Jose CA). Recombinant human ENPP3 protein (Acro Biosystems, Newwark DE) was prepared in assay buffer (50 mM Tris pH7.5, 1 mM TCEP pH7.0, 2 mM MgCl2, 2 mM CaCl2), 2 mM ZnCl2 and 0.005% Tween20) and added at 2 μl/well. The plate was sealed, centrifuged at 1000 rpm for 1 minute and incubated at room temperature for 30 minutes before 2 μl substrate 2′3′-cGAMP (R&D Systems, Minneapolis MN) in assay buffer was added to each well to a final concentration of 70.5 nM ENPP3 and 120 μM 2′3′-cGAMP. The plate was sealed and centrifuged at 1000 rpm for 1 minute again. After incubation at 25° C. for 60 minutes, Terbium labelled AMP/GMP antibody and AMP/GMP HiLyte647 Tracer (BellBrook Labs, Fitchburg WI) in detection buffer (50 mM Tris pH7.5, 20 mM EDTA and 0.1% Prionex) were added to the reaction mixture to a final concentration of 475 nM and 3 nM respectively. The assay plate was incubated at room temperature for 120 minutes. TR-FRET signal was detected using Envision (PerkinElmer, Waltham MA).

Sequence of Recombinant human ENPP1 protein (P22413 whole entry): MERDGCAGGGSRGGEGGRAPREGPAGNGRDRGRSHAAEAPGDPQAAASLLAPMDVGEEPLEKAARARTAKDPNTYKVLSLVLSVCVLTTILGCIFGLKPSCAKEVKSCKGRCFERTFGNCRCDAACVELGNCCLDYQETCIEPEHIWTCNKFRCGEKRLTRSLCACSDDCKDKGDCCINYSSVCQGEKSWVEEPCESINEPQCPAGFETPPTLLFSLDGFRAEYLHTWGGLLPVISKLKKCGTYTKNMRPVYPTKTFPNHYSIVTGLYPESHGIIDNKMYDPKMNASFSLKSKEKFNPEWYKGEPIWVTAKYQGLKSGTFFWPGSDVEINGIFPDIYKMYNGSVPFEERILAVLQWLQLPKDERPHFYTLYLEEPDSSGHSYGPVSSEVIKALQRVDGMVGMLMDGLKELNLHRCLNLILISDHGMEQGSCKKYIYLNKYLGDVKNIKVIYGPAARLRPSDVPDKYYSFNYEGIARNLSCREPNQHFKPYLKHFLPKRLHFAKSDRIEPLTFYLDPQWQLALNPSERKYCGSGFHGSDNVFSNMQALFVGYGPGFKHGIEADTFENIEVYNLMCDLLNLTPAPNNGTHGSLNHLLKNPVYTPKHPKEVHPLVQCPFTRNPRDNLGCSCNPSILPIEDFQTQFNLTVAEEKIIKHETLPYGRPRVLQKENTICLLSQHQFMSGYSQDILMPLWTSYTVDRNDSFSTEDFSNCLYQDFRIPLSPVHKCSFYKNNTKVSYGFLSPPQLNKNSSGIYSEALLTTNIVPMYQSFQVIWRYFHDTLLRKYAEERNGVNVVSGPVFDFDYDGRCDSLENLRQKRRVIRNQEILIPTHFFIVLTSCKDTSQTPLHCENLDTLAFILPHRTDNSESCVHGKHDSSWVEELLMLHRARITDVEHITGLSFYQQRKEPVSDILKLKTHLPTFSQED

Structure (SMILES)	IC50 [1] [nM]	IC50 [2] [nM]
C#CCn1nc(Cl)c2c(N(C)Cc3ccc([S@@](C)(=N)=O)cc3)ccnc21 [Compound 9C, (S)-(4-(((3-chloro-1-(prop-2-yn-1-yl)-1H-pyrazolo[3,4-b]pyridin-4-yl)(methyl)amino)methyl)phenyl)(imino)(methyl)-λ^6-sulfanone]	< 10	≥ 1000
C#CCn1nc(Cl)c2c(NCc3ccc(S(C)(=N)=O)cc3)ccnc21 (stereo not drawn) [Compound 9D, (4-(((3-chloro-1-(prop-2-yn-1-yl)-1H-pyrazolo[3,4-b]pyridin-4-yl)amino)methyl)phenyl)(imino)(methyl)-λ6-sulfanone]	< 10	10 to 100
CCn1ncc2c(NCc3ccc(S(C)(=N)=O)cc3)ccnc21 (stereo not drawn) [Compound 9E, (4-(((1-ethyl-1H-pyrazolo[3,4-b]pyridin-4-yl)amino)methyl)phenyl)(imino)(methyl)-λ6-sulfanone]	≥ 1000	≥ 1000
CS(=N)(=O)c1ccc(CNc2ccnc3c2c(Cl)nn3CC#N)cc1 (stereo not drawn) [Compound 9F, 2-(3-chloro-4-((4-(S-methylsulfonimidoyl)benzyl)amino)-1H-pyrazolo[3,4-b]pyridin-1-yl)acetonitrile]	< 10	10 to 100
C[S@](=N)(=O)c1ccc(CNc2ccnc3c2c(Cl)nn3CC#N)cc1 [Compound 9G, (S)-2-(3-chloro-4-((4-(S-methylsulfonimidoyl)benzyl)amino)-1H-pyrazolo[3,4-b]pyridin-1-yl) acetonitrile]	100 to 1000	≥ 1000
C[S@@](=N)(=O)c1ccc(CNc2ccnc3c2c(Cl)nn3CC#N)cc1 [Compound 9H, (R)-2-(3-chloro-4-((4-(S-methylsulfonimidoyl)benzyl)amino)-1H-pyrazolo[3,4-b]pyridin-1-yl)acetonitrile]	< 10	10 to 100
CCn1nc(Cl)c2c(NCc3ccc(S(=N)(=O)CCOC)cc3)ccnc21 (stereo not drawn) [Compound 9I, (4-(((3-chloro-1-ethyl-1H-pyrazolo[3,4-b]pyridin-4-yl)amino)methyl)phenyl)(imino)(2-methoxyethyl)-λ6-sulfanone]	< 10	100 to 1000
CCn1nc(Cl)c2c(NCc3ccc(S(=N)(=O)CC4CC4)cc3)ccnc21 (stereo not drawn) [Compound 9J, (4-(((3-chloro-1-ethyl-1H-pyrazolo[3,4-b]pyridin-4-yl)amino)methyl)phenyl) (cyclopropylmethyl)(imino)-λ^6-sulfanone]	< 10	100 to 1000
CCn1nc(Cl)c2c(NCc3ccc(S(=N)(=O)CC)cc3)ccnc21 (stereo not drawn) [Compound 9K, (4-(((3-chloro-1-ethyl-1H-pyrazolo[3,4-b]pyridine-4-yl)amino)methyl)phenyl)(ethyl) (imino)-λ^6-sulfanone]	< 10	100 to 1000
CCn1nc(Cl)c2c(NCc3ccc([S@](C)(=N)=O)cc3)ccnc21 [Compound 9L, (R)-(4-(((3-chloro-1-ethyl-1H-pyrazolo[3,4-b]pyridin-4-yl)amino)methyl)phenyl)(imino) (methyl)-λ^6-sulfanone]	< 10	100 to 1000
CCn1nc(Cl)c2c(NCc3ccc([S@@](C)(=N)=O)cc3)ccnc21 [Compound 9M, (S)-(4-(((3-chloro-1-ethyl-1H-pyrazolo[3,4-b]pyridin-4-yl)amino)methyl)phenyl)(imino) (methyl)-λ^6-sulfanone]	10 to 100	≥ 1000
CCn1nc(Cl)c2c(NCc3ccc([S@](=N)(=O)CCOC)cc3)ccnc21 [Compound 9N, (R)-(4-(((3-chloro-1-ethyl-1H-pyrazolo [3,4-b]pyridine-4-yl)amino)methyl)phenyl)(imino)(2-methoxyethyl)-λ^6-sulfanone]	< 10	≥ 1000
C#CCn1nc(Cl)c2c(NCc3ccc(S(C)(=O)=NC)cc3)ccnc21 (stereo not drawn) [Compound 10A, (4-(((3-chloro-1-(prop-2-yn-1-yl)-1H-pyrazolo[3,4-b]pyridin-4-yl)amino)methyl)phenyl)(methyl)(methylimino)-λ6-sulfanone]	100 to 1000	≥ 1000
CN=S(C)(=O)c1ccc(CNc2ccnc3c2c(Cl)nn3CC#N)cc1 (stereo not drawn) [Compound 10D, 2-(3-chloro-4-((4-(N,S-dimethylsulfonimidoyl)benzyl)amino)-1H-pyrazolo[3,4-b]pyridin-1-yl)acetonitrile]	100 to 1000	≥ 1000
CN[S@](=N)(=O)c1ccc(CNc2ccnc3c2c(Cl)nn3CC#N)cc1 [Compound 10E, (S)-4-(((3-chloro-1-(cyanomethyl)-1H-pyrazolo[3,4-b]pyridin-4-yl)amino)methyl)-N-methylbenzenesulfonimidamide]	< 10	100 to 1000
CN[S@@](=N)(=O)c1ccc(CNc2ccnc3c2c(Cl)nn3CC#N)cc1 [Compound 10F, (R)-4-(((3-chloro-1-(cyanomethyl)-1H-pyrazolo[3,4-b]pyridin-4-yl)amino)methyl)-N-methylbenzenesulfonimidamide]	10 to 100	≥ 1000
C#CCn1nc(Cl)c2c(NCc3ccc(S(=N)(N)=O)cc3)ccnc21 (stereo not drawn) [Compound 11A, 4-(((3-chloro-1-(prop-2-yn-1-yl)-1H-pyrazolo[3,4-b]pyridin-4-yl)amino)methyl)benzenesulfonimidamide]	< 10	10 to 100
N#CCn1nc(Cl)c2c(NCc3ccc(S(=N)(N)=O)cc3)ccnc21 (stereo not drawn) [Compound 11B, 4-(((3-chloro-1-(cyanomethyl)-1H-pyrazolo[3,4-b]pyridin-4-yl)amino)methyl)benzenesulfonimidamide]	< 10	100 to 1000
CCn1nc(Cl)c2c(NCc3ccc(S(=N)(N)=O)cc3)ccnc21 (stereo not drawn) [Compound 11C, 4-(((3-chloro-1-ethyl-1H-pyrazolo[3,4-b]pyridin-4-yl)amino)methyl)benzenesulfonimidamide]	< 10	≥ 1000
C#CCn1nc(Cl)c2c(NCc3ccc(S(N)(=O)=NC)cc3)ccnc21 (stereo not drawn) [Compound 12A, 4-(((3-chloro-1-(prop-2-yn-1-yl)-1H-pyrazolo[3,4-b]pyridin-4-yl)amino)methyl)-N′-methylbenzenesulfonimidamide]	< 10	10 to 100
CN=S(N)(=O)c1ccc(CNc2ccnc3c2c(Cl)nn3CC#N)cc1 (stereo not drawn) [Compound 12B, 4-(((3-chloro-1-(cyanomethyl)-1H-pyrazolo[3,4-b]pyridin-4-yl)amino)methyl)-N′-methylbenzenesulfonimidamide]	< 10	100 to 1000
CCn1nc(Cl)c2c(NCc3ccc([S@@](N)(=O)=NC)cc3)ccnc21 [Compound 12C, (S)-4-(((3-chloro-1-ethyl-1H-pyrazolo[3,4-b]pyridin-4-yl)amino)methyl)-N′-methyl benzenesulfonimidamide]	10 to 100	≥ 1000
CCn1nc(Cl)c2c(NCc3ccc([S@](N)(=O)=NC)cc3)ccnc21 [Compound 12D, (R)-4-(((3-chloro-1-ethyl-1H-pyrazolo[3,4-b]pyridin-4-yl)amino)methyl)-N′-methyl benzenesulfonimidamide]	10 to 100	≥ 1000
CCn1nc(Cl)c2c(NCc3ccc(S(N)(=O)=NCC(F)(F)F)cc3)ccnc21 (stereo not drawn) [Compound 12E, 4-(((3-chloro-1-ethyl-1H-pyrazolo[3,4-b]pyridin-4-yl)amino)methyl)-N′-(2,2,2-trifluoroethyl) benzenesulfonimidamide]	10 to 100	≥ 1000
CCn1nc(Cl)c2c(NCc3ccc(S(N)(=O)=NC#N)cc3)ccnc21 (stereo not drawn) [Compound 12F, 4-(((3-chloro-1-ethyl-1H-pyrazolo[3,4-b]pyridine-4-yl)amino)methyl)-N′-cyano benzenesulfonimidamide]	< 10	10 to 100
C#CCn1nc(Cl)c2c(NCC3CCN(S(C)(=N)=O)CC3)ccnc21 (stereo not drawn) [Compound 13A, 3-chloro-N-((1-(S-methylsulfonimidoyl)piperidin-4-yl)methyl)-1-(prop-2-yn-1-yl)-1H-pyrazolo[3,4-b]pyridin-4-amine]	< 10	10 to 100
C#CCn1nc(Cl)c2c(NCC3CCN([S@](C)(=N)=O)CC3)ccnc21 [Compound 13B, (S)-3-chloro-N-((1-(S-methylsulfonimidoyl)piperidin-4-yl)methyl)-1-(prop-2-yn-1-yl)-1H-pyrazolo[3,4-b]pyridin-4-amine]	< 10	10 to 100
